Experimental data reported in patent US20190105367A1, “ANTIMICROBIAL 4-OXOQUINOLIZINES” (Emergent Product Development Gaithersburg Inc., priority 2011, published 2019).

Experiments:
[1] = tested on: A. baumannii NCTC 13301; assay: MIC without and with sub-inhibitory polymyxin B (Example 4); type: cell-based, Acinetobacter baumannii; conditions: A. baumannii NCTC 13301; +[…] PB; 2nd experiment
[2] = tested on: A. baumannii A14; assay: Preliminary MBC without and with sub-inhibitory polymyxin B (Example 4); type: cell-based, Acinetobacter baumannii; conditions: 2nd experiment
Method: (§1) The plates were incubated for 18-20 hours at 37° C. The MBC was read as the lowest concentration at which colony growth was ca. 90% less than the positive control (i.e. usually where single colonies or no colonies were observed).

[3] = tested on: A. baumannii NCTC 13301; assay: as above; type: cell-based, Acinetobacter baumannii; conditions: A. baumannii NCTC 13301, preliminary MBC; for MBC: 2nd experiment
Method: as §1

[4] = tested on: A. baumannii A473; assay: as above; type: cell-based, Acinetobacter baumannii; conditions: for MBC: 2nd experiment
Method: as §1

[5] = tested on: A. baumannii A390; assay: as above; type: cell-based, Acinetobacter baumannii; conditions: for MBC: 2nd experiment
Method: as §1

[6] = tested on: A. baumannii A472; assay: MIC without and with sub-inhibitory polymyxin B (Example 4); type: cell-based, Acinetobacter baumannii; conditions: A. baumannii A472; for MIC: 2nd experiment
[7] = tested on: A. baumannii A14; assay: as above; type: cell-based, Acinetobacter baumannii; conditions: A. baumannii A14, 2nd experiment
[8] = tested on: A. baumannii A387; assay: as above; type: cell-based, Acinetobacter baumannii; conditions: A. baumannii A387; for MIC: 2nd experiment
[9] = tested on: A. baumannii A401; assay: as above; type: cell-based, Acinetobacter baumannii; conditions: A baumannii A 401; for MIC: 2nd experiment
[10] = tested on: A. baumannii J2; assay: as above; type: cell-based, Acinetobacter baumannii; conditions: A. baumannii J2
[11] = tested on: A. baumannii A387; assay: Preliminary MBC without and with sub-inhibitory polymyxin B (Example 4); type: cell-based, Acinetobacter baumannii; conditions: for MBC: 2nd experiment
[12] = tested on: Acinetobacter sp. (H064200250); assay: MIC without and with sub-inhibitory polymyxin B (Example 4); type: cell-based; conditions: for MIC: Acinetobacter spp. H064200250 (OXA51), 2nd experiment
[13] = tested on: A. baumannii A472; assay: Preliminary MBC without and with sub-inhibitory polymyxin B (Example 4); type: cell-based, Acinetobacter baumannii; conditions: A. baumannii A472, preliminary MBC; for MBC: 2nd experiment
[14] = tested on: A. baumannii A473; assay: MIC without and with sub-inhibitory polymyxin B (Example 4); type: cell-based, Acinetobacter baumannii; conditions: A. baumannii A473; for MIC: 2nd experiment
[15] = tested on: A. baumannii A489; assay: Preliminary MBC without and with sub-inhibitory polymyxin B (Example 4); type: cell-based, Acinetobacter baumannii; conditions: A. baumannii A489, preliminary MBC; for MBC: 2nd experiment
[16] = tested on: A. baumannii A401; assay: as above; type: cell-based, Acinetobacter baumannii; conditions: for MBC: 2nd experiment
[17] = tested on: A. baumannii A14; assay: as above; type: cell-based, Acinetobacter baumannii; conditions: A. baumannii A14, preliminary MBC, 1st experiment
[18] = tested on: strains of A. baumannii and one strain of Acinetobacter sp.; assay: MIC with sub-inhibitory concentrations (0.25x MIC) of polymyxin B, panel of Acinetobacter strains (Example 4); type: cell-based
[19] = tested on: A. baumannii ATCC 19606; assay: MIC without and with sub-inhibitory polymyxin B (Example 4); type: cell-based, Acinetobacter baumannii; conditions: A. baumannii ATCC 19606; for MIC: 2nd experiment
[20] = tested on: A. baumannii A390; assay: as above; type: cell-based, Acinetobacter baumannii; conditions: A. baumannii A390; for MIC: 2nd experiment
[21] = tested on: A. baumannii A329; assay: Preliminary MBC without and with sub-inhibitory polymyxin B (Example 4); type: cell-based, Acinetobacter baumannii; conditions: for MBC: 2nd experiment
[22] = tested on: A. baumannii A14; assay: MIC without and with sub-inhibitory polymyxin B (Example 4); type: cell-based, Acinetobacter baumannii; conditions: 1st experiment
[23] = tested on: A. baumannii NCTC 13301; assay: as above; type: cell-based, Acinetobacter baumannii; conditions: A. baumannii NCTC 13301; +[…] polymyxin B; 1st experiment
[24] = +[…] polymyxin B, 1st experiment
[25] = without polymyxin B, 1st experiment
[26] = +0.06 μg/ml polymyxin B, 1st experiment

Imipenem/cilastatin
MIC [1]: 1 µg/mL | MBC ([2]; A. baumannii A14, +0.06 μg/ml PB): 0.5 µg/mL | MBC ([2]; A. baumannii A14, without PB): 1 µg/mL | MBC ([3]; +[…] PB): 0.5 µg/mL | MBC +[…] PB [3, 24]: 16 µg/mL | MBC ([3]; without PB): 128 µg/mL | MBC without PB [3, 25]: 128 µg/mL | MBC ([4]; A. baumannii A473, +0.06 μg/ml PB): 4 µg/mL | MBC ([4]; A. baumannii A473, without PB): 32 µg/mL | MBC without PB ([4]; A. baumannii A473, without polymyxin B, 1st experiment): 32 µg/mL | MBC ([5]; A. baumannii A390, +0.06 μg/ml PB): 4 µg/mL | MBC ([5]; A. baumannii A390, without PB): 16 µg/mL | MBC without PB ([5]; A. baumannii A390, without polymyxin B, 1st experiment): 16 µg/mL | MIC ([6]; +[…] PB): 0.25 µg/mL | MIC +[…] PB [6, 24]: 0.25 µg/mL | MIC ([6]; without PB): 8 µg/mL | MIC without PB [6, 25]: 16 µg/mL | MIC ([7]; +0.06 μg/ml PB): 1 µg/mL | MIC ([7]; without PB): 1 µg/mL | MIC ([8]; +0.06 μg/ml PB): 8 µg/mL | MIC +0.06 μg/ml PB [8, 26]: 8 µg/mL | MIC ([8]; without PB): 16 µg/mL | MIC without PB [8, 25]: 16 µg/mL | MIC ([9]; +0.06 μg/ml PB): 4 µg/mL | MIC +0.06 μg/ml PB [9, 26]: 8 µg/mL | MIC ([9]; without PB): 32 µg/mL | MIC without PB [9, 25]: 32 µg/mL | MIC ([10]; +[…] PB, 2nd experiment): ≤0.125 µg/mL | MIC +[…] PB [10, 24]: ≤0.125 µg/mL | MIC ([10]; without PB, 2nd experiment): 8 µg/mL | MIC read with alamar blue ([10]; without PB, value in parentheses, 2nd experiment): 4 µg/mL | MIC without PB [10, 25]: 4 µg/mL | MBC ([11]; A. baumannii A387, +0.06 μg/ml PB): 8 µg/mL | MBC +0.06 μg/ml PB ([11]; A. baumannii A387, +0.06 μg/ml polymyxin B, 1st experiment): 8 µg/mL | MBC ([11]; A. baumannii A387, without PB): 16 µg/mL | MBC without PB ([11]; A. baumannii A387, without polymyxin B, 1st experiment): 16 µg/mL | MIC ([12]; +[…] PB): 0.5 µg/mL | MIC ([12]; without PB): 8 µg/mL | MIC +[…] PB ([12]; Acinetobacter spp. H064200250, +[…] polymyxin B, 1st experiment): 0.5 µg/mL | MIC without PB ([12]; Acinetobacter spp. H064200250, without polymyxin B, 1st experiment): 16 µg/mL | MBC ([13]; +[…] PB): 0.25 µg/mL | MBC +[…] PB [13, 24]: 0.25 µg/mL | MBC ([13]; without PB): 8 µg/mL | MBC without PB [13, 25]: 16 µg/mL | MIC ([14]; +0.06 μg/ml PB): 4 µg/mL | MIC ([14]; without PB): 32 µg/mL | MIC without PB [14, 25]: 32 µg/mL | MBC ([15]; +[…] PB): 0.25 µg/mL | MBC +[…] PB [15, 24]: 2 µg/mL | MBC ([15]; without PB): 64 µg/mL | MBC without PB [15, 25]: 64 µg/mL | MBC ([16]; A baumannii A 401, +0.06 μg/ml PB): 4 µg/mL | MBC +0.06 μg/ml PB ([16]; A baumannii A 401, +0.06 μg/ml polymyxin B, 1st experiment): 8 µg/mL | MBC ([16]; A baumannii A 401, without PB): 32 µg/mL | MBC without PB ([16]; A baumannii A 401, without polymyxin B, 1st experiment): 32 µg/mL | MBC +0.06 μg/ml PB ([17]; +0.06 μg/ml polymyxin B): 1 µg/mL | MBC without PB ([17]; without polymyxin B): 2 µg/mL | MIC range with PB (0.25x MIC) Oct. 1, 2008 n = 8 ([18]; 1st experiment, […] polymyxin B, ATCC 19606, A329, A390 and A473 not taken): <0.125 to 16 µg/mL | MIC range with PB (0.25x MIC) Oct. 14, 2008 n = 11 ([18]; 2nd experiment, 0.06 μg/ml polymyxin B, all strains except the ATCC strain): ≤0.125 to 128 µg/mL | MIC ([19]; +0.06 μg/ml PB): 1 µg/mL | MIC +0.06 μg/ml PB [19, 26]: 1 µg/mL | MIC ([19]; without PB): 1 µg/mL | MIC ([19]; without PB, value in parentheses marked *, mark not explained): 4 µg/mL | MIC without PB [19, 25]: 2 µg/mL | MIC ([20]; +0.06 μg/ml PB): 4 µg/mL | MIC ([20]; without PB): 16 µg/mL | MIC without PB [20, 25]: 16 µg/mL | MBC ([21]; A. baumannii A329, +0.06 μg/ml PB): 128 µg/mL | MBC ([21]; A. baumannii A329, without PB): >128 µg/mL | MBC without PB ([21]; A. baumannii A329, without polymyxin B, 1st experiment): 128 µg/mL | MIC +0.06 μg/ml PB ([22]; +0.06 μg/ml polymyxin B): 1 µg/mL | MIC without PB ([22]; without polymyxin B): 1 µg/mL | MIC +[…] PB [23]: 16 µg/mL
